Laboratory results as given in PubChem BioAssay AID624167 (Sanford-Burnham Center for Chemical Genomics, 2012).
pIC50: −log10 of the molar value. Calls of active or inactive are those of the source.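 Rule for the calls: active = mean IC50 for reducing PEG3 promoter reporter signal at or below a set limit, with IC50 above the limit in both counter screens; inactive = the rest, including counter screen hits.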

Tests used:
PEG-3 [1] = test: Peg3 promoter luciferase inhibitors, potency, dose response, cell-based, HeLa, CREF/GAPDH counter-screen panel (AID 624167); conditions: HeLa PEG-Prom luciferase reporter, overnight, CREF/GAPDH counter-screens
PEG-3 [2] = molecular target: PEG-3 (UniProt Q6IN02); test: as above; conditions: HeLa PEG-Prom luciferase reporter, overnight, CREF/GAPDH counter-screens, mean of runs
Sequence of PEG-3 (UniProt Q6IN02) (Q6IN02 whole entry, looked up): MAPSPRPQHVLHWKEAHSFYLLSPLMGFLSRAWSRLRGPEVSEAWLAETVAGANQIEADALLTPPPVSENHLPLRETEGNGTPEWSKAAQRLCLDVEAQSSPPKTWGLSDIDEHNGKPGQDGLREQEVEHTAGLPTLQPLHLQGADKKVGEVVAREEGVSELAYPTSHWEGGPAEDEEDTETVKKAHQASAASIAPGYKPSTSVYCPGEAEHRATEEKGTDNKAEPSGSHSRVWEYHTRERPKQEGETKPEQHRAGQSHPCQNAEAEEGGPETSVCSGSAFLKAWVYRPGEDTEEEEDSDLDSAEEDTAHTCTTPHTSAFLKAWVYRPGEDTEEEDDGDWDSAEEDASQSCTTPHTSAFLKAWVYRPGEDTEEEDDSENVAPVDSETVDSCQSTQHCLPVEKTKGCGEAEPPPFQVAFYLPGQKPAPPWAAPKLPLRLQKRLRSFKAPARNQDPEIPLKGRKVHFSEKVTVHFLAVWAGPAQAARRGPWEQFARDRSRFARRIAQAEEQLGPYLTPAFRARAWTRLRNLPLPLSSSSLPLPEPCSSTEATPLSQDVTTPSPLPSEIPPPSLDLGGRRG

[3] = run 1, dose range 1, individual replicate IC50 per panel
[4] = run 2, dose range 1, individual replicate IC50 per panel

Row | SMILES | pIC50 (PEG-3 [1]; [3]) | pIC50 (PEG-3 [1]; [4]) | IC50 (PEG-3 [2]) | pIC50 (PEG-3 [2])
1 | O=C(Nc1ccc(-c2nc3ccccc3o2)cc1)c1ccc(N2CCOCC2)c([N+](=O)[O-])c1 | < 4.00 | < 4.00 | > 100 µM (inactive) | –
2 | CCn1c2ccccc2c2cc(NC(=O)C(C)OC(=O)c3ccc(NC(=O)CC#N)cc3)ccc21 (stereo not drawn) | 4.38 | 4.41 | inactive | –
3 | CCN(CC)C(=O)c1ccc(NC(=O)Nc2ccccc2F)cc1 | 4.73 | 4.81 | – | 4.76
4 | CN(C)CC1CCC/C(=C/c2ccc(Cl)cc2)C1=O (stereo not drawn) | 4.84 | 5.11 | – | 4.95
5 | CCCCNC(=O)C(C)N(CCN(C)C)C(=O)CCCCCN1C(=O)NC(c2ccc(Cl)cc2)C(C(=O)OCc2ccccc2)=C1C (stereo not drawn) | 4.79 | 4.99 | – | 4.88
6 | c1ccc(-c2cc(-c3nc4ccccc4[nH]3)c3ccccc3n2)cc1 | 4.81 | 4.40 | inactive | –
7 | Cc1ccc(C)c(CN2CCC(CNC(=O)Nc3ccc(F)c(Cl)c3)CC2)c1 | 4.76 | 4.92 | – | 4.83
8 | CC1CCCC(C)N1C(=C(Cl)Cl)C(=C1SCCS1)[N+](=O)[O-] (stereo not drawn) | 4.94 | 4.78 | – | 4.85
9 | Cc1c(OCC(=O)NC2CC(C)(C)NC(C)(C)C2)ccc2c1oc(=O)c1ccccc12 | 4.36 | < 4.00 | inactive | –
10 | CC1(C)CC(NCCN2CCN(C3=CC(=C(C#N)C#N)CC(C)(C)C3)CC2)=CC(=C(C#N)C#N)C1 | < 4.00 | 5.08 | inactive | –
11 | CN(C(=O)OC(C)(C)C)c1ccc(-c2nc3ccccc3s2)cc1 | > 6.70 | 5.35 | – | 5.64
12 | COc1cccc(/C=N/NC(=O)c2c(-c3ccccc3)noc2C)c1O | 4.37 | < 4.00 | inactive | –
13 | CC(=O)Nc1cccc(-c2ccnc3c2CC(C)(C(=O)Nc2cccc(C(F)(F)F)c2)O3)c1 (stereo not drawn) | 5.28 | < 4.00 | inactive | –
14 | O=C(Nc1ccc(-c2cn3ccsc3n2)cc1)c1ccc(F)c(S(=O)(=O)N2CCOCC2)c1 | < 4.00 | < 4.00 | > 100 µM (inactive) | –
15 | O=[N+]([O-])c1ccc(-c2nc(Nc3cccc(O)c3)c3ccccc3n2)cc1 | 4.87 | 4.90 | – | 4.89
16 | CN1OC[C@@H]2CN[C@H](c3ccc(-c4cc5ccccc5o4)cc3)C[C@@H]21 | 4.60 | 4.90 | – | 4.73
17 | CN1CCN(c2ccc(NC(=O)N3CCc4ccccc43)cc2)CC1 | 4.82 | 4.41 | inactive | –
18 | O=C(CN1CCN(Cc2ccccc2Cl)CC1)N=Nc1c(O)[nH]c2ccccc12 | 5.28 | < 4.00 | inactive | –
19 | CC1(C(=O)NCc2cccc3ccccc23)CCN1C(=O)Cc1ccc(-c2ccccc2)cc1 (stereo not drawn) | 4.99 | < 4.00 | inactive | –
20 | O=S(=O)(/N=C(/Sc1ccccc1)c1ccccc1)c1ccccc1 | 4.54 | 4.72 | inactive | –
21 | CC(=O)Nc1cccc(NC(=O)c2cc(-c3cccnc3)nc3ccc(Cl)cc23)c1 | 4.30 | 4.23 | inactive | –
22 | CC1(C)C(=O)C=CC(=O)C(C)(C)C(=O)C=CC(=O)C(C)(C)C2=CC=C(O2)C(C)(C)C(=O)C=CC1=O | 4.78 | 4.93 | – | 4.85
23 | Cc1cccc(N=C2Sc3nc4c(C)c(C)ccc4cc3CN2CCN2CCOCC2)c1 | 4.53 | 4.49 | inactive | –

Row | SMILES | pIC50 (PEG-3 [1]; [3]) | pIC50 (PEG-3 [1]; [4]) | IC50 (PEG-3 [2]) | pIC50 (PEG-3 [2])
24 | CCCN1CCc2c(sc(NC(=O)c3ccc(S(=O)(=O)N4CCN(C(=O)OCC)CC4)cc3)c2C(N)=O)C1 | 4.66 | 4.67 | inactive | –
25 | CCc1nccn1C(=O)c1cnn2c(C(F)F)cc(-c3ccc(C)cc3)nc12 | 4.73 | 4.81 | – | 4.76
26 | Cc1ccc(F)cc1-c1cc2nc(NCCCN(C)C)n(C)c(=O)c2s1 | 4.51 | 4.23 | inactive | –
27 | NC(=O)c1nsc(C(=O)N(c2ccccc2F)C(C(=O)NCc2ccccc2)c2ccc(O)cc2)c1N (stereo not drawn) | 4.40 | < 4.00 | inactive | –
28 | CN1CCC(N(C)C(=O)/C=C/c2cn(-c3ccccc3)nc2-c2cccs2)CC1 | 4.73 | 4.71 | – | 4.72
29 | O=C(C[C@H]1C[C@H](C(=O)N2CCCCC2)[C@@]2(CCc3ccccc3)c3[nH]c4ccc(Cl)cc4c3CCN2C1=O)NCCc1ccccn1 | 4.75 | 4.59 | inactive | –
30 | COc1ccc2nc3n(c(=O)c2c1)-c1cc2ccccc2cc1C(=O)NC3Cc1ccc(O)cc1 (stereo not drawn) | 4.67 | 4.86 | – | 4.76
31 | Cc1ccc(C(=O)N2CCN(c3ccc([N+](=O)[O-])c(NCc4cccnc4)c3)CC2)cc1 | 4.98 | 4.64 | – | 4.78
32 | COc1ccc(-n2cc(CNC3CCN(C)CC3)c(-c3cccc(F)c3)n2)cc1 | 4.58 | 4.81 | inactive | –
33 | COc1ccccc1N(C(=O)CCl)c1cn(C(C)=O)c2ccccc12 | 4.62 | 4.58 | inactive | –
34 | CCCCn1nnnc1C(CCSC)N1CCC(n2c(=O)[nH]c3ccccc32)CC1 (stereo not drawn) | 4.46 | 4.15 | inactive | –
35 | CC(=O)Nc1ccc(S(=O)(=O)N(Cc2ccco2)Cc2cc3ccccc3[nH]c2=O)cc1 | 4.73 | 4.65 | inactive | –
36 | O=C(CCN1C(=O)/C(=C/c2ccc(F)cc2)SC1=S)N[C@@H](CO)Cc1ccccc1 | 4.92 | < 4.00 | inactive | –
37 | COc1ccc(-c2ccc3[nH]c4c(c3c2)CCN2C[C@@H]([C@H](C)O)[C@@H](N(C)C(=O)Nc3cc(Cl)cc(Cl)c3)C[C@@H]42)cc1 | 4.36 | 4.51 | inactive | –
38 | Cc1ccccc1NC(=O)C(=Cc1ccc(C(=O)O)cc1)C(=O)Nc1ccccc1C | 4.43 | 4.13 | inactive | –
39 | COc1cc(NC(=O)c2c(F)c(F)c(F)c(F)c2F)c(OC)cc1Cl | 4.63 | 4.80 | – | 4.70
40 | NC(N)=N/N=C/c1ccc(Cl)cc1Cl | 4.63 | 4.76 | inactive | –
41 | CCC1CCCCN1S(=O)(=O)c1ccc(C(=O)N(CCCN(C)C)c2nc3cc4c(cc3s2)OCO4)cc1 (stereo not drawn) | 4.66 | 4.30 | inactive | –
42 | Cc1cccc(-n2ncc3c(N(C)C4CCCCC4)ncnc32)c1 | 4.65 | 4.57 | inactive | –
43 | Cc1ccc2[nH]c3c(c2c1)CCCC3NC(=O)CCl (stereo not drawn) | 4.63 | 4.30 | inactive | –
44 | O=C(Nc1ccccc1)NN(C(=O)CCl)c1ccccc1 | 4.70 | 4.88 | – | 4.78
45 | CC1=CC2OC3CC4OC(=O)C=CC=CC(C(C)O)OCC(O)C(C)CC(=O)OCC2(CC1O)C4(C)C31CO1 (stereo not drawn) | > 6.70 | > 6.70 | – | > 6.70
46 | CCCCNc1nc(=S)n(-c2ccccc2)c(C)c1C(C)=O | 4.66 | 4.90 | – | 4.76
